# Data taken from patent publication US11279726B2, “Norbornene-based amphipathic compound and utilization thereof” (Industry-University Cooperation Foundation Hanyang …, priority 2017, dated 2022).
# What was measured:
# [1] = target: T1, uric acid-xanthine/H+ symporter (UapA) (Emericella nidulans, UniProt Q07307, G411V); experiment: UapA extraction and thermal stability by fluorescence size exclusion chromatography (FSEC); set-up: species or system Aspergillus nidulans; conditions: 1.0 wt % amphiphile, 10 minutes at 40° C.; compared with DDM
# T1 construct: made in house; host or cells: Saccharomyces cerevisiae FGY217
# Description: An experiment for measuring the structural stability of uric acid-xanthine/H+ symporter (UapA) isolated from Aspergillus nidulans using NBMs was performed. The structural stability of UapA was evaluated using […].
# Specifically, UapAG411VΔ1-11 (hereinafter, referred to as “UapA”) was expressed as GFP fusion in Saccharomyces cerevisiae FGY217 strain and isolated in a sample buffer (20 mM Tris (pH 7.5), 150 mM NaCl, 0.03% DDM, 0.6 mM xanthine) according to the method described in the literature written by J. Leung et al. (Mol. Membr. Biol. 2013, 30, 32-42). Membranes containing UapA were resuspended in PBS, 10 mM imidazole pH 8.0, 150 mM NaCl, 10% glycerol, and the protein concentration was measured. The membranes were adjusted to a concentration of 1 mg·ml^−1 and 1 ml aliquots were individually incubated with DDM or NBMs at a final amphiphilic material concentration of 1.0 wt % for 10 minutes at 40° C. 100 μl aliquots were removed from each tube, and a fluorescence reading was taken for each sample before and after ultracentrifugation at 150,000 g for 10 minutes to remove insoluble material. The remaining soluble fraction for each condition was submitted to fluorescent size exclusion chromatography (FSEC) using a Superose 6 column (GE Healthcare) equilibrated with DDM.
# [2] = Hydrodynamic radius / size distribution of micelles by dynamic light scattering (DLS); type: physicochemical; conditions: 1.0 wt % agent
# Description: A method for measuring the radius of a micelle is not particularly limited, and a method well known in the art may be used, and for example, the radius thereof may be measured using a dynamic light scattering (DLS) experiment.
# (§1) To identify the characteristics of NBMs synthesized in Preparation Example 1 to 6 according to the synthetic method of Example 1, molecular weights (MWs) of NBMs, critical micelle concentrations (CMCs) and hydrodynamic radii (Rh) of the micelles were measured.
# (§2) Specifically, the critical micelle concentrations (CMCs) were measured by fluorescent staining with diphenylhexatriene (DPH), and the hydrodynamic radii (Rh) of the micelle formed with individual agents (1.0 wt %) were measured by dynamic light scattering (DLS).
# [3] = Critical micelle concentration by fluorescent staining with diphenylhexatriene (DPH); type: physicochemical; conditions: aqueous solution
# Description: A method for measuring CMC is not particularly limited, and a method widely known in the art may be used, for example, by fluorescence staining with diphenylhexatriene (DPH).
# as §1, §2
# [4] = target: T2, human β2 adrenergic receptor (β2AR) (Homo sapiens, UniProt P07550); experiment: β2AR stability: [3H]-DHA ligand binding activity of solubilized receptor
# T2 construct: made in house
# Description: An experiment of measuring the stability of human β2 adrenergic receptor (β2AR) and G-protein-coupled receptor (GPCR) for NBMs was carried out. That is, the receptor was extracted from the cell membranes by DDM and purified in the same amphiphilic compound. The DDM-purified receptor was diluted in individual DDM- or NBM-containing buffers to adjust the final compound concentration to be CMC+0.2 wt %. The receptor stability was assessed by measuring ligand binding activity using [3H]-DHA.
# To measure long-term stability of human β2AR with NBMs (D-NBM-C11 and X-NBM-C11) showing an excellent ligand binding activity of the receptor in the previous experiment, a radio-labeled ligand binding experiment was performed by the following method. β2AR was purified using 0.1% DDM (D. M. Rosenbaum et al., Science, 2007, 318, 1266-1273), and finally concentrated to approximately 10 mg/ml (approximately 200 μM). A main binding mixture containing 10 nM [^3H]-DHA supplemented with 0.5 mg/ml BSA was prepared in 0.2% amphiphilic compound (DDM or NBMs (D-NBM-C11 and X-NBM-C11)) using β2AR purified with DDM. The receptor purified with DDM or NBMs was incubated with 10 nM [^3H]-DHA at room temperature for 30 minutes. The mixture was loaded onto a G-50 column, the fractions were collected in a 1 ml binding buffer (20 mM HEPES pH 7.5, 100 mM NaCl, containing 0.5 mg/ml BSA and 20× CMC individual amphiphilic compounds). In addition, each fraction was supplemented with a 15 ml scintillation fluid, and receptor-bound [^3H]-DHA was measured using a scintillation counter (Beckman) at regular intervals for 3 days. The binding capacity of [^3H]-DHA was shown as a bar chart (FIG. 11a).
# In addition, β2AR was extracted from the membrane using 1.0 wt % of DDM or X-NBM-C11 and purified at 0.2 wt % for the same individual amphiphilic compounds. Structural stability of the receptor was assessed by ligand binding activity, which was measured with sample aliquots at regular intervals during 7-day incubation at room temperature. Each experiment was carried out in triplicate (FIG. 12b).
# [5] = target: T3, Salmonella typhimurium melibiose permease (MelBSt) (Salmonella typhimurium, UniProt P30878); experiment: MelBSt extraction and thermostability (SDS-PAGE / western blotting); conditions: 1.5 wt %
# T3 construct: made in house; host or cells: E. coli DW2 (ΔmelB, ΔlacZY)
# Description: An experiment of measuring structural stability of MelBSt (Salmonella typhimurium melibiose permease) protein with NBMs was carried out. The MelBSt protein was extracted from the membrane using NBMs or DDM, and the amounts and structure of the extracted proteins were analyzed by SDS-PAGE and western blotting. The concentration of the used amphiphilic compound was 1.5 wt %. The proteins were extracted at four temperatures (0, 45, 55, and 65° C.) and incubated at the same temperature for 90 minutes, and the amounts of the remaining proteins solubilized in an aqueous solution were measured, so as to simultaneously evaluate both performances of the compound such as protein extraction efficiency and stabilization activity. The amounts of the proteins extracted and stabilized by respective amphiphilic molecules were represented as relative values (%) to the amounts of total proteins contained in the membrane sample not treated with an amphiphilic molecule.
# Specifically, Salmonella typhimurium melibiose permease (MelBSt) with a C-terminal 10-His tag was expressed in E. coli DW2 cells (^ΔmelB and ^ΔlacZY) using plasmid pK95^ΔAHB/WT MelBSt/CH10. Cell growth and membrane preparation were carried out according to the method described in the literature written by A. S. Ethayathulla et al. (Nat. Commun. 2014, 5, 3009). Protein assays were carried out with a Micro BCA kit (Thermo Scientific, Rockford, Ill.). The measurement of MelBSt stability was carried out on NBMs or DDM according to the protocol described by P. S. Chae et al. (Nat. Methods 2010, 7, 1003-1008). Membrane samples containing MelBSt (final protein concentration was 10 mg/mL) were incubated with a solubilization buffer (20 mM sodium phosphate, pH 7.5, 200 mM NaCl, 10% glycerol, 20 mM melibiose) and 1.5% (w/v) of DDM or NBMs (X-NBM-C10, D-NBM-C10, X-NBM-C11 or D-NBM-C11) at four different temperatures (0, 45, 55, 65° C.) for 90 minutes. To remove insoluble materials, following ultracentrifugation at 355,590 g using a Beckman Optimal™ MAX ultracentrifuge with TLA-100 rotor for 45 minutes at 4° C. was performed, and 20 μg of each protein sample was separated by SDS-16% PAGE, and then immunoblotted with a Penta-His-HRP antibody (Qiagen, Germantown, Md.). MelBSt was detected using SuperSignal West Pico chemiluminescent substrate by an ImageQuant LAS 4000 Biomolecular Imager (GE Health Care Life Science).
# β2AR-Gs complex = β2AR-Gs complex (Homo sapiens, UniProt P07550); experiment: Negative stain EM analysis of β2AR-Gs complex
# Description: A β2AR-Gs protein complex was prepared for electron microscopy using the conventional negative staining protocol, and imaged at room temperature with a Tecnai T12 electron microscope operated at 120 kV using low-dose procedures. Images were recorded at a magnification of 71,138× and a defocus value of approximately 1.4μ using a Gatan US4000 CCD camera. All images were binned (2×2 pixels) to obtain a pixel size of 4.16 A at the specimen level. Particles were manually excised using e2boxer (part of the EMAN2 software suite). 2D reference-free alignment and classification of particle projections were performed using ISAC. 14,556 projections of β2AR-Gs were subjected to ISAC, producing 199 classes consistent over two-way matching and accounting for 10,100 particle projections.
SMILES,Retention of monodispersed UapA-GFP peak after heating (FSEC) [1],"Rh (nm), hydrodynamic radius of micelles [2] [nm]",CMC [3] [mM],CMC (wt %) [3] [wt %],"Long-term ligand binding activity of β2AR ([3H]-DHA) ([4]; 0.2% amphiphile, room temperature, 3 days (7 days for receptor extracted with the amphiphile))",Initial ligand binding activity of β2AR ([3H]-DHA) ([4]; DDM-purified receptor diluted to CMC+0.2 wt % amphiphile),"MelBSt protein extraction (solubilization) efficiency ([5]; 0° C. and 45° C., 90 minutes)","MelBSt protein extraction efficiency ([5]; 0° C., 90 minutes)","Amount of solubilized MelBSt protein ([5]; 65° C., 90 minutes)",Particle dispersity of β2AR-Gs complex in negative stain EM (β2AR-Gs complex),MelBSt membrane protein stabilization activity (overall) ([5]; elevated temperature)
"CCCCCCCCCCC(CCCCCCCCCC)(CO[C@@H]1O[C@H](CO)[C@@H](O[C@H]2O[C@H](CO)[C@@H](O)[C@H](O)[C@H]2O)[C@H](O)[C@H]1O)CO[C@@H]1O[C@H](CO)[C@@H](O[C@H]2O[C@H](CO)[C@@H](O)[C@H](O)[C@H]2O)[C@H](O)[C@H]1O [MNG-3, reference compound]",ineffective in preventing protein denaturation/aggregation,,,,,,,,,,
CCCCCCCCCCOCC1C2CC([C@H]1COCCCCCCCCCC)[C@H](O[C@@H]1OC(CO)[C@@H](O[C@H]3OC(CO)[C@@H](O)C(O)C3O)C(O)C1O)C2O[C@@H]1OC(CO)[C@@H](O[C@H]2OC(CO)[C@@H](O)C(O)C2O)C(O)C1O (stereo partly shown) [X-NBM-C10],more or less comparable to DDM,4.0 ± 0.02,~0.007,~0.0008,,,,,,,
"CCCCCCCCCCCCO[C@@H]1O[C@H](CO)[C@@H](O[C@H]2O[C@H](CO)[C@@H](O)[C@H](O)[C@H]2O)[C@H](O)[C@H]1O [DDM, n-dodecyl-β-D-maltopyranoside, reference compound]",single monodispersed peak with relatively high intensity,3.4 ± 0.03,~0.17,~0.0087,rapidly decreased over time,excellent initial ligand binding activity,high MelBSt protein extraction efficiency,higher protein extraction efficiency than NBMs,no MelBSt protein solubilized in an aqueous solution was detectable,aggregated particles,
CCCCCCCCCOCC1C2CC([C@@H]1COCCCCCCCCC)[C@H](O[C@@H]1OC(CO)[C@@H](O[C@H]3OC(CO)[C@@H](O)C(O)C3O)C(O)C1O)C2O[C@@H]1OC(CO)[C@@H](O[C@H]2OC(CO)[C@@H](O)C(O)C2O)C(O)C1O (stereo partly drawn) [D-NBM-C9],low recovery of monodispersed protein peak,3.3 ± 0.04,~0.012,~0.0013,,,,,,,
CCCCCCCCCCOCC1C2CC([C@@H]1COCCCCCCCCCC)[C@H](O[C@@H]1OC(CO)[C@@H](O[C@H]3OC(CO)[C@@H](O)C(O)C3O)C(O)C1O)C2O[C@@H]1OC(CO)[C@@H](O[C@H]2OC(CO)[C@@H](O)C(O)C2O)C(O)C1O (stereo partly drawn) [D-NBM-C10],slightly lower effect than DDM,3.5 ± 0.03,~0.008,~0.0009,,,,,,,excellent membrane protein stabilization activity
CCCCCCCCCOCC1C2CC([C@H]1COCCCCCCCCC)[C@H](O[C@@H]1OC(CO)[C@@H](O[C@H]3OC(CO)[C@@H](O)C(O)C3O)C(O)C1O)C2O[C@@H]1OC(CO)[C@@H](O[C@H]2OC(CO)[C@@H](O)C(O)C2O)C(O)C1O (stereo partly shown) [X-NBM-C9],more or less comparable to DDM,3.7 ± 0.03,~0.010,~0.0011,,,,,,,
